The record followed here is patent publication US11236055B2 (Venenum Biodesign, LLC, priority 2016, dated 2022).

Structures are written as SMILES.

Data set [1] is described as follows: Portal vein versus systemic pharmacokinetics in hepatic portal vein cannulated rats. The class given is in vivo, rat. As to conditions: portal vein cannulated male CD (SD) rats, 10 mg/kg oral; for Cmax / Tmax / AUC(0-t): rat; for AUC(0-t): read-out: AUC (0-7 h). As for the experimental part: Low Level of Compounds is Attributed to Low Intestinal Absorption
In this study, it was determined if the low plasma level of the compounds of the present invention is due to low absorption in the gut, or due to the first pass effect (i.e., absorption followed by a rapid degradation of compounds by liver). Hepatic portal vein cannulated male CD (SD) rats obtained from Charles River Laboratory were utilized. In brief, Compound 20BG was administered orally at 10 mg/kg, and blood was obtained simultaneously from the portal vein and systemic circulation (retro-orbital sinus) at pre-dose, 0.25, 0.5, 1, 2, and 4 hours post-dose, in EDTA coated tubes. The samples were processed into plasma and quantification of compound levels in the plasma was accomplished by means of LC-MS/MS analysis as described in Example 59.

Data set [2] is described as follows: Bile weight after multiple days of dosing in DIO mice. The class given is in vivo, mouse. The settings on record: 12 days of dosing, about 6 h after final dose. As for the experimental part:
No Bile Weight Increase after Multiple Days of Dosing Compounds
Compounds of the present invention were dosed for multiple days and evaluated for an increase in bile weight within the gallbladder. In this example, the protocol from Example 66 was utilized. In week 2 of the study, mice were euthanized and bile was removed from the gallbladder about 6 hours after the final dose and the bile was weighed to approximate the volume of bile contained within the bladder.

For data set [3], the system named is GLP-1 plasma level in DIO mice. Briefly: GLP-1 levels after multiple days of dosing in DIO mice. In kind it is in vivo, mouse. The settings on record: 12 days BID oral, in combination with linagliptin, 6 h after final dose. The protocol: GLP-1 Levels after Multiple Days of Dosing Compounds
Compounds of the present invention were dosed for multiple days and were evaluated to determine if they produce sustained GLP-1 levels. In this example, the protocol from Example 66 was utilized. In week 2 of the study, mice were euthanized and blood was collected 6 hours after the final dose of compound. For the GLP-1 assay, 200-250 μL of blood was placed in an EDTA K^2+ tube containing 5 μL of 40 mg/mL aprotinin (Sigma A1153) and 1 μL of 10 mM sitagliptin (Sigma S8576) and plasma was separated by centrifugation. Plasma samples were stored at −20° C. until analysis. The active form of GLP-1 [GLP-1 (7-36) amide] was analyzed using Meso Scale Discovery System according to the manufacturer's directions (item number K150HYC). Values of p<0.05 are considered statistically significant.

The nature of data set [4]: Absorption vs. first pass metabolism: Cmax with and without 1-aminobenzotriazole (ABT) pre-treatment. The class given is in vivo, mouse. As to conditions: ICR, mouse, plasma; lean mice receiving ABT (150 mg/kg) 2 h before compound, 10 mg/kg oral. The protocol: Absorption Vs. First Pass Metabolism
In this study, the absorption was examined as compared to first pass metabolism of the compounds of the present invention. ICR mice (Hilltop) were pre-treated with 1-aminobenzotriazole (ABT), a nonselective inhibitor of cytochrome P450 enzymes to inhibit Cyp450-mediated degradation of the compounds in liver.
ABT was administered at 150 mg/kg in 5 mL/kg of 0.04% ethanol in 0.5% methyl cellulose (w/v) by oral gavage, 2 hours prior to test compound administration. The compounds 20AA and 20AC were administered by oral gavage at 10 mg/kg in 10 mL/kg of 20% PEG400/80% (0.5% (w/v) CMC containing 0.25% (v/v) Tween 80) (v/v), 2 hours after the ABT treatment. Blood was collected via orbital bleeding at predose, 0.25, 0.5, 1, 2, and 4 hours post-dose and the quantification of compound levels in plasma was accomplished by means of LC-MS/MS analysis as described in Example 59. Reference compound “Propranolol” that is known to be metabolized by Cyp450 was used as a positive control.
FIG. 4 depicts the Cmax (nM) of the compounds of the present invention with and without ABT pre-treatment.

Data set [5] is described as follows: Comparison of PK in DIO mice and lean mice. The class given is in vivo, mouse. As to conditions: for Cmax / Tmax / AUC(0-t): mouse, plasma, po; for AUC(0-t): read-out: AUC (0-4 h). As for the experimental part: Comparison of PK in DIO Mice and Lean Mice
The PK characteristics of Compound 20AA were examined in non-fasted lean C57BL/6N and DIO mice (Taconic). Compound 20AA was orally administered to both groups at 10 mg/kg by oral gavage and plasma concentration of the compound was determined as described in Example 59.
In addition, PK parameters were determined for Compound 20AA (i.e., Cmax, Tmax and AUC) following oral administration in four groups of mice: (i) fasted lean mice; (ii) non-fasted lean mice; (iii) non-fasted DIO mice; and (iv) lean mice receiving ABT.

[6] abbreviates: portal vein plasma, Portal Vein bleed.
Where [7] appears, read: systemic plasma (retro-orbital sinus), Peripheral bleed (retro-orbital sinus).
The mark [8] stands for this setting: C57BL/6N, 10 mg/kg, DIO mice, non-fasted, 10 mpk.
[9] abbreviates: C57BL/6N, 10 mg/kg, Lean mice, non-fasted, 10 mpk.
Where [10] appears, read: C57BL/6N, 10 mg/kg, Non-fasted DIO mice, 10 mg/kg oral.
The mark [11] stands for this setting: C57BL/6N, 10 mg/kg, Non-fasted Lean mice, 10 mg/kg oral.
Setting [12] is: Fasted Lean mice, oral administration.

In general, Cmax refers to the maximum level reached in the sampled fluid or tissue. The term Tmax denotes the time from dosing to the highest level.

Turning to `CCc1cnccc1-c1cccc([C@H](C)N(CCCC(=O)NCCS(=O)(=O)NCC(=O)O)S(=O)(=O)c2ccccc2C(F)(F)F)c1` [Compound 20BG], in data set [1], the “absorption (PK in portal vein and systemic circulation)” value was “very low absorption”. For the same compound, in data set [1] (setting [6]), the Cmax was found to be 7.6 ± 3.6 ng/mL, the Tmax is 0.25 to 2 h and the AUC(0-t) turned out to be 30.1 ± 0.9 ng·h/mL. Moreover, in data set [1] (setting [7]), the highest level (Cmax) was 1.3 ± 0.7 ng/mL, the Tmax is 0.25 to 1 h and the AUC(0-t) was found to be 3.1 ± 10.8 ng·h/mL. The “bile weight / gallbladder size” value in data set [2] was “does not show an increase”. For the same compound, in data set [3], the “GLP-1 plasma level versus vehicle” value was “significantly increased”.
Turning to `Cc1cnccc1-c1cccc(C(C)(C)N(CCCC(=O)NCCS(=O)(=O)O)S(=O)(=O)c2ccccc2C(F)(F)F)c1` [Compound 20AA, 2-(4-(N-(2-(3-(3-methylpyridin-4-yl)phenyl)propan-2-yl)-2-(trifluoromethyl)phenylsulfonamido)butanamido)ethanesulfonic acid], the Cmax in data set [4] was determined as 2.6 nM; in data set [5] (setting [8]), 1.7 nM; in data set [5] (setting [9]), 3 nM; in data set [5] (setting [10]), 1.7 nM; in data set [5] (setting [11]), 3 nM; in data set [5] (setting [12]) it was 7.2 nM. Also, the Tmax worked out at 0.25 h in data set [4]; 1 h in data set [5] (setting [8]); 1 h in data set [5] (setting [9]); 1 h in data set [5] (setting [10]); 0.25 h in data set [5] (setting [11]); 1 h in data set [5] (setting [12]). Besides, the values for the AUC(0-t) in data set [5] (setting [10]), in data set [5] (setting [11]) and in data set [5] (setting [12]) were 7.6 ng·h/mL, 4 ng·h/mL and 26 ng·h/mL, respectively. For the same compound, the “PK profile (Cmax, Tmax, AUC)” value in data set [5] (lean and DIO mice, fasted or non-fasted, oral administration) was “low PK profile”.
